Measured values from ChEMBL document CHEMBL4033677, “Design and synthesis of pyrazolo[3,4-d]pyrimidines: Nitric oxide releasing compounds targeting hepatocellular carcinoma” (Bioorg Med Chem, 2017).

Assays:
Format in all cases: functional
COLO 205 = assay: Growth inhibition of human COLO205 cells assessed as cell growth at 10^-5 M incubated for 48 hrs by sulforhodamine B assay relative to control; conditions: COLO 205, 48 h, read-out: Activity
HCC 2998 = assay: Growth inhibition of human HCC2998 cells assessed as cell growth at 10^-5 M incubated for 48 hrs by sulforhodamine B assay relative to control; conditions: HCC 2998, 48 h, read-out: Activity
HT-29 = assay: Growth inhibition of human HT-29 cells assessed as cell growth at 10^-5 M incubated for 48 hrs by sulforhodamine B assay relative to control; conditions: HT-29, 48 h, read-out: Activity
SF-295 = assay: Growth inhibition of human SF295 cells assessed as cell growth at 10^-5 M incubated for 48 hrs by sulforhodamine B assay relative to control; conditions: SF-295, 48 h, read-out: Activity
SF-539 = assay: Growth inhibition of human SF539 cells assessed as cell growth at 10^-5 M incubated for 48 hrs by sulforhodamine B assay relative to control; conditions: SF-539, 48 h, read-out: Activity
SNB-19 = assay: Growth inhibition of human SNB19 cells assessed as cell growth at 10^-5 M incubated for 48 hrs by sulforhodamine B assay relative to control; conditions: SNB-19, 48 h, read-out: Activity
U-251 = assay: Growth inhibition of human U251 cells assessed as cell growth at 10^-5 M incubated for 48 hrs by sulforhodamine B assay relative to control; conditions: U-251, 48 h, read-out: Activity
Malme-3M = assay: Growth inhibition of human MALME-3M cells assessed as cell growth at 10^-5 M incubated for 48 hrs by sulforhodamine B assay relative to control; conditions: read-out: Activity
M14 = assay: Growth inhibition of human M14 cells assessed as cell growth at 10^-5 M incubated for 48 hrs by sulforhodamine B assay relative to control; conditions: M14, 48 h, read-out: Activity
MDA-MB-435 = assay: Growth inhibition of human MDA-MB-435 cells assessed as cell growth at 10^-5 M incubated for 48 hrs by sulforhodamine B assay relative to control; conditions: MDA-MB-435, 48 h, read-out: Activity
UACC-62 = assay: Growth inhibition of human UACC62 cells assessed as cell growth at 10^-5 M incubated for 48 hrs by sulforhodamine B assay relative to control; conditions: UACC-62, 48 h, read-out: Activity
IGROV-1 = assay: Growth inhibition of human IGROV1 cells assessed as cell growth at 10^-5 M incubated for 48 hrs by sulforhodamine B assay relative to control; conditions: IGROV-1, 48 h, read-out: Activity
OVCAR-3 = assay: Growth inhibition of human OVCAR3 cells assessed as cell growth at 10^-5 M incubated for 48 hrs by sulforhodamine B assay relative to control; conditions: OVCAR-3, 48 h, read-out: Activity
OVCAR-4 = assay: Growth inhibition of human OVCAR4 cells assessed as cell growth at 10^-5 M incubated for 48 hrs by sulforhodamine B assay relative to control; conditions: OVCAR-4, 48 h, read-out: Activity
NCI/ADR-RES = assay: Growth inhibition of human NCI/ADR-RES cells assessed as cell growth at 10^-5 M incubated for 48 hrs by sulforhodamine B assay relative to control; conditions: read-out: Activity
SK-OV-3 = assay: Growth inhibition of human SKOV3 cells assessed as cell growth at 10^-5 M incubated for 48 hrs by sulforhodamine B assay relative to control; conditions: SK-OV-3, 48 h, read-out: Activity
SN12C = assay: Growth inhibition of human SN12C cells assessed as cell growth at 10^-5 M incubated for 48 hrs by sulforhodamine B assay relative to control; conditions: read-out: Activity
Hs-578T = assay: Growth inhibition of human Hs 578T cells assessed as cell growth at 10^-5 M incubated for 48 hrs by sulforhodamine B assay relative to control; conditions: read-out: Activity
BT-549 = assay: Growth inhibition of human BT549 cells assessed as cell growth at 10^-5 M incubated for 48 hrs by sulforhodamine B assay relative to control; conditions: BT-549, 48 h, read-out: Activity
T47D = assay: Growth inhibition of human T47D cells assessed as cell growth at 10^-5 M incubated for 48 hrs by sulforhodamine B assay relative to control; conditions: read-out: Activity
MDA-MB-468 = assay: Growth inhibition of human MDA-MB-468 cells assessed as cell growth at 10^-5 M incubated for 48 hrs by sulforhodamine B assay relative to control; conditions: MDA-MB-468, 48 h, read-out: Activity

Compound	growth at 10 µM (COLO 205) [%]	growth at 10 µM (HCC 2998) [%]	growth at 10 µM (HT-29) [%]	growth at 10 µM (SF-295) [%]	growth at 10 µM (SF-539) [%]	growth at 10 µM (SNB-19) [%]	growth at 10 µM (U-251) [%]	growth at 10 µM (Malme-3M) [%]	growth at 10 µM (M14) [%]	growth at 10 µM (MDA-MB-435) [%]	growth at 10 µM (UACC-62) [%]	growth at 10 µM (IGROV-1) [%]	growth at 10 µM (OVCAR-3) [%]	growth at 10 µM (OVCAR-4) [%]	growth at 10 µM (NCI/ADR-RES) [%]	growth at 10 µM (SK-OV-3) [%]	growth at 10 µM (SN12C) [%]	growth at 10 µM (Hs-578T) [%]	growth at 10 µM (BT-549) [%]	growth at 10 µM (T47D) [%]	other results
BrCCCOc1ccc(Nc2ncnc3c2cnn3-c2ccccc2)cc1	103	108	99.4	107	92.5	97.7	94.6	112	100	101	91.4	80.5	97	93.3	98.3	90.2	94	101	93.4	84.2	growth at 10 µM (MDA-MB-468): 99.7%
Cc1nn(-c2ccccc2)c2ncnc(Nc3ccc(OCCCBr)cc3)c12	105	107	58.2	93	96	94.7	89	106	91.3	100	89.3	105	103	99.6	102	81	95.2	111	97.8	84.8	growth at 10 µM (MDA-MB-468): 95.5%
Cc1nc(Nc2ccc(OCCCBr)cc2)c2cnn(-c3ccccc3)c2n1	106	103	96.6	101	92.5	92.6	81.4	98.2	94.5	107	86.2	90.3	106	94.3	92.1	82.9	91.8	82.6	92.9	83.6	growth at 10 µM (MDA-MB-468): 98.9%
Cc1nc(Nc2ccc(OCCCBr)cc2)c2c(C)nn(-c3ccccc3)c2n1	108	107	93.7	96.3	98.3	94.5	90.5	107	94	100	83	91.8	107	99.5	107	96	78.8	97.3	91.6	83.5	growth at 10 µM (MDA-MB-468): 95%
